Laboratory results from patent US20080008734A1, “Reduction of skin irritation caused by biomedical electrodes” (priority 2006, published 2008).

Assays:
skin = assay: Stimulation erythema with antioxidant incorporated in the conductive hydrogel adhesive; assay type: in vivo; conditions: in UV cured acrylic hydrogel adhesive; this amount gave a very weak adhesive that cohesively failed
Description: In the majority of conductive hydrogel adhesives used in these biomedical electrodes are UV cured acrylics formed by the free radical polymerization of hydrophilic acrylic monomers in water. UV light generates free radicals from photoinitiators, however antioxidants react with these free radicals thereby inhibiting the polymerization of the acrylic monomers. Antioxidants such as MEHQ are used to preserve acrylic monomers until use. […] A few ppm of the very potent antioxidant Astaxathin inhibited polymerization. The greater than 1500 ppm of MEHQ alone that was needed to prevent and/or alleviate stimulation erythema gave a very weak hydrogel adhesive that cohesively failed leaving residue on the skin.

[1] = Stability of SAP in the aqueous environment of hydrogel adhesives; assay type: physicochemical; conditions: pH 4.0±0.5 aqueous environment of the hydrogel adhesives
Description: (See U.S. Pat. No. 6,842,636 B2 to Perrault, et al. and U.S. Pat. No. 6,115,625 to Heard et al.).

Row | SMILES | amount of MEHQ alone needed to prevent and/or alleviate stimulation erythema (skin) | stability over time [1]
1 | COc1ccc(O)cc1 [MEHQ, monomethyl ether of hydroquinone] | greater than 1500 ppm | 
2 | O=C1O[C@H](C(O)CO)C(O)=C1OP(=O)(O)O (some centres unmarked) [SAP, Sodium Ascorbyl Phosphate] |  | not stable over time
